# Patent US20150260723A1, “COMPANION DIAGNOSTICS FOR TEC FAMILY KINASE INHIBITOR THERAPY” (PHARMACYCLICS, INC., priority 2012, published 2015)
# Several values for one entry are separate records, joined by “and”; a condition that tells them apart may be missing. Equal entries are not always repeated.
# Key:
# BLK = biological target: T1, BLK (Homo sapiens, UniProt P51451); assay: standard kinase inhibition assay performed by Nanosyn; format: biochemical; conditions: [Enzyme] 0.4 nM, [ATP] 20 μM, inc time 1 hr
# T1 construct: purchased BPS 40401
# T1 sequence (P51451 whole entry): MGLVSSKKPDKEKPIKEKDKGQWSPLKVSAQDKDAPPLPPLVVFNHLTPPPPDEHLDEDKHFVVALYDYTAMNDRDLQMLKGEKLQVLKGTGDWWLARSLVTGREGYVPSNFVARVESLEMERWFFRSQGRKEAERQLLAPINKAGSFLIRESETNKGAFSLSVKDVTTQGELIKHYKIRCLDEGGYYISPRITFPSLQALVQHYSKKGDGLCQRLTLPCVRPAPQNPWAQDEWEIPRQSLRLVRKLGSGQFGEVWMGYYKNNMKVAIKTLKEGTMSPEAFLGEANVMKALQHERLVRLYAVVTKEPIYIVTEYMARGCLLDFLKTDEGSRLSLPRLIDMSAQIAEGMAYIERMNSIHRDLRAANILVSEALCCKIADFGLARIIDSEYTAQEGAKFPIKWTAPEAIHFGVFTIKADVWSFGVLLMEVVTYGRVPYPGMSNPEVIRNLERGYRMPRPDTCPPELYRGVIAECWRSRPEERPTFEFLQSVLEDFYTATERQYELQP
# Protocol: (§1) The following kinases were assayed according the table 4 below:
# (§2) Compounds were tested in singlicates using 12 pt (3×-dilutions) dose response format with top concentration of 10 mM or 1 mM.
# BMX = biological target: T2, BMX (Homo sapiens, UniProt P51813); assay: as above; format: biochemical; conditions: [Enzyme] 1.82 nM, [ATP] 75 μM, inc time 1 hr
# T2 construct: purchased BPS 40402
# T2 sequence (P51813 1-675): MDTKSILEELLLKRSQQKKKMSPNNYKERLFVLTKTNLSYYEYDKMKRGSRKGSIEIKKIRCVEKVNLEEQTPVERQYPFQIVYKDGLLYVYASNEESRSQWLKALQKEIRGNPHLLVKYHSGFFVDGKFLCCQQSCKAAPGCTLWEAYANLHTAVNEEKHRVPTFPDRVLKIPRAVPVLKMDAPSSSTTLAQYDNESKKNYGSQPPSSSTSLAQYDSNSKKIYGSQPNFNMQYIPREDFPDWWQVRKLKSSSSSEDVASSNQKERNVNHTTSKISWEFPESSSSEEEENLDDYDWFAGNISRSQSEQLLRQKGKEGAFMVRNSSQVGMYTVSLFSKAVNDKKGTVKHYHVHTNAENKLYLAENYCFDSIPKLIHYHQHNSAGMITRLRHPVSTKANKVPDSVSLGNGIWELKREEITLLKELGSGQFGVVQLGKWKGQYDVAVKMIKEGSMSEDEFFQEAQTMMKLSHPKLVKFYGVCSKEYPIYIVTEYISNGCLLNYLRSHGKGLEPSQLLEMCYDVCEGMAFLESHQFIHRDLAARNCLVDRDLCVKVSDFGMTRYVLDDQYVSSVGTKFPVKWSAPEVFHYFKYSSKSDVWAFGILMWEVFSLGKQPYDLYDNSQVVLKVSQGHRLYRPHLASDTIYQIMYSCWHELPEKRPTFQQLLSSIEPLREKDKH
# Protocol: as §1, §2
# BTK [1] = biological target: T3, BTK (Homo sapiens, UniProt Q06187); assay: as above; format: biochemical; conditions: [Enzyme] 0.95 nM, [ATP] 20 μM, inc time 1 hr
# T3 sequence (Q06187 whole entry): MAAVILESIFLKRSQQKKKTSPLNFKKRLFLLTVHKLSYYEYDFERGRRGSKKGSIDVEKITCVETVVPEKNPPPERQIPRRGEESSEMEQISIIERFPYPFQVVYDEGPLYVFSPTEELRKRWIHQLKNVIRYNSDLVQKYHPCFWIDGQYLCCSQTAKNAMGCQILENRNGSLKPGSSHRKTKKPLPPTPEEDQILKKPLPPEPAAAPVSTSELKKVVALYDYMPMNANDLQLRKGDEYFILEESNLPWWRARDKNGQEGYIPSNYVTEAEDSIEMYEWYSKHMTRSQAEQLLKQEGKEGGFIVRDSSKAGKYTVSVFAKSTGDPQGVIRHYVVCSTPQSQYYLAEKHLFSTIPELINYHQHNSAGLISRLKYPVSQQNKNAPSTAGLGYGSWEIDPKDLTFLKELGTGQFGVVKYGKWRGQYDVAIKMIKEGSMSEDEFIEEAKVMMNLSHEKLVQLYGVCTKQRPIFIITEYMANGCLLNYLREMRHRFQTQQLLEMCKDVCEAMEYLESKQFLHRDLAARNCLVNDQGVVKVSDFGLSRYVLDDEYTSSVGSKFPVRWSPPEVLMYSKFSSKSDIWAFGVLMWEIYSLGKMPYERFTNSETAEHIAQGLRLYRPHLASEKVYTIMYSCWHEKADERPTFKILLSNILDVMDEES
# Protocol: as §1, §2
# ITK = biological target: T4, ITK (Homo sapiens, UniProt Q08881); assay: as above; format: biochemical; conditions: [Enzyme] 1 nM, [ATP] 50 μM, inc time 3 hr
# T4 construct: endogenous in cells; host or cells: Jurkat cell lysate
# T4 sequence (Q08881 1-620): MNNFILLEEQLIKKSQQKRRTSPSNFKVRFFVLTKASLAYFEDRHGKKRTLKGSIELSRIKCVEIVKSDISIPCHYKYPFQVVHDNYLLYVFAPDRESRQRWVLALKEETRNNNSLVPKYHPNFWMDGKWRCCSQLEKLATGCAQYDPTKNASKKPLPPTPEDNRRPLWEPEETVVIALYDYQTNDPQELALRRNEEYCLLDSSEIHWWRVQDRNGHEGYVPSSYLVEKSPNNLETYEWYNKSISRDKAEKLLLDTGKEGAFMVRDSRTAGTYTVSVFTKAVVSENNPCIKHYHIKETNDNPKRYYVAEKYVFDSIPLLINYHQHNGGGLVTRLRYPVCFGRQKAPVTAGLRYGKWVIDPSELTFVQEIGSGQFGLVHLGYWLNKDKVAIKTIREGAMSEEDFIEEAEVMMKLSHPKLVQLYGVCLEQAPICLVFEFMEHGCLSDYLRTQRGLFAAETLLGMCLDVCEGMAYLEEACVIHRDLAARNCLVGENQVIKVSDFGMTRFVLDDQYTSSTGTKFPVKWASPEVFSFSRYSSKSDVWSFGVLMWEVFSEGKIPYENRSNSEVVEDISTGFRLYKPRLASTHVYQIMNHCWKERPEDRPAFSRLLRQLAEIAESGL
# Protocol: as §1, §2
# JAK3 = biological target: T5, JAK3 (Homo sapiens, UniProt P52333); assay: as above; format: biochemical; conditions: [Enzyme] 2 nM, [ATP] 2 μM, inc time 3 hr
# T5 construct: purchased INVITROGEN PV3855
# T5 sequence (P52333 781-1124 limits assumed): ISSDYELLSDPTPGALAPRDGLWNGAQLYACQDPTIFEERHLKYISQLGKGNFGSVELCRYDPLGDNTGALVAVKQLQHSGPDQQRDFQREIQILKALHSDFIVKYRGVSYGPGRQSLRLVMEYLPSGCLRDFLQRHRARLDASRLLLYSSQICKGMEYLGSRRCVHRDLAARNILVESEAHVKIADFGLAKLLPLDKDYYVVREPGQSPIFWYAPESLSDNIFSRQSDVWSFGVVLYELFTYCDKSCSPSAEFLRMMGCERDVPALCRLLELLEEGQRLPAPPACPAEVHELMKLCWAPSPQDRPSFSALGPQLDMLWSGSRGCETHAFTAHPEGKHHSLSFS
# Protocol: as §1, §2
# LCK = biological target: T6, LCK (Homo sapiens, UniProt P06239); assay: as above; format: biochemical; conditions: [Enzyme] 0.4 nM, [ATP] 50 μM, inc time 1 hr
# T6 construct: purchased INVITROGEN P3043
# T6 sequence (P06239 whole entry): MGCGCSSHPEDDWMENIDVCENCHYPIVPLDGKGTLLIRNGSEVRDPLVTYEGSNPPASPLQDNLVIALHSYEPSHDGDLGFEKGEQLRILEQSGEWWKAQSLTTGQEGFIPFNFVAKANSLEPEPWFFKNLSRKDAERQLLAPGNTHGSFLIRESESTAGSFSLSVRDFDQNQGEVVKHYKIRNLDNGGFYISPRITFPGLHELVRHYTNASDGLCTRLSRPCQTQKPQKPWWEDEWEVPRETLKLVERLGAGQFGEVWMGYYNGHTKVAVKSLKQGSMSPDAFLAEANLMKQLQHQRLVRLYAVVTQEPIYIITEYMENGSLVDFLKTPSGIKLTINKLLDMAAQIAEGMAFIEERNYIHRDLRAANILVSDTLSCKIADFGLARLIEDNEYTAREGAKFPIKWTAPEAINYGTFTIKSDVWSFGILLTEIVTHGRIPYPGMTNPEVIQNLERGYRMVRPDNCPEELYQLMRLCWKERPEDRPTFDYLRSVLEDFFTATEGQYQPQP
# Protocol: as §1, §2
# SRC = biological target: T7, SRC (Homo sapiens, UniProt P12931); assay: as above; format: biochemical; conditions: [Enzyme] 3 nM, [ATP] 25 μM, inc time 1 hr
# T7 construct: purchased INVITROGEN P3044
# T7 sequence (P12931 whole entry): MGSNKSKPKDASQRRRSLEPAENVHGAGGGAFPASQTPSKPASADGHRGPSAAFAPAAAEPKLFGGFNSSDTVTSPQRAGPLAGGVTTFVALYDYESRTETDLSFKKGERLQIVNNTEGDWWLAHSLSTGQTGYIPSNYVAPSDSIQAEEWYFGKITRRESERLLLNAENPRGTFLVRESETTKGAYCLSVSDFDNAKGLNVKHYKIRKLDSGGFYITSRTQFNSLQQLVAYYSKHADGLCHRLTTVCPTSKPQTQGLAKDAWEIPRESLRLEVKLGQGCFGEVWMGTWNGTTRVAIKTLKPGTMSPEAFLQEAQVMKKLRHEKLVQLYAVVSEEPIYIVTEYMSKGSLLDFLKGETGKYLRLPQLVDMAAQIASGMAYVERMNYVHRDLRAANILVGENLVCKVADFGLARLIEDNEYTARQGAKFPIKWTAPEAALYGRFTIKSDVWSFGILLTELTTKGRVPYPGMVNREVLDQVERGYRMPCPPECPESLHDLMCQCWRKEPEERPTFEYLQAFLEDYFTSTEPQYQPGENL
# Protocol: as §1, §2
# TEC = biological target: T8, TEC (Homo sapiens, UniProt P42680); assay: as above; format: biochemical; conditions: [Enzyme] 4.6 nM, [ATP] 12 μM, inc time 1 hr
# T8 construct: purchased Millipore 14-801
# T8 sequence (P42680 1-631): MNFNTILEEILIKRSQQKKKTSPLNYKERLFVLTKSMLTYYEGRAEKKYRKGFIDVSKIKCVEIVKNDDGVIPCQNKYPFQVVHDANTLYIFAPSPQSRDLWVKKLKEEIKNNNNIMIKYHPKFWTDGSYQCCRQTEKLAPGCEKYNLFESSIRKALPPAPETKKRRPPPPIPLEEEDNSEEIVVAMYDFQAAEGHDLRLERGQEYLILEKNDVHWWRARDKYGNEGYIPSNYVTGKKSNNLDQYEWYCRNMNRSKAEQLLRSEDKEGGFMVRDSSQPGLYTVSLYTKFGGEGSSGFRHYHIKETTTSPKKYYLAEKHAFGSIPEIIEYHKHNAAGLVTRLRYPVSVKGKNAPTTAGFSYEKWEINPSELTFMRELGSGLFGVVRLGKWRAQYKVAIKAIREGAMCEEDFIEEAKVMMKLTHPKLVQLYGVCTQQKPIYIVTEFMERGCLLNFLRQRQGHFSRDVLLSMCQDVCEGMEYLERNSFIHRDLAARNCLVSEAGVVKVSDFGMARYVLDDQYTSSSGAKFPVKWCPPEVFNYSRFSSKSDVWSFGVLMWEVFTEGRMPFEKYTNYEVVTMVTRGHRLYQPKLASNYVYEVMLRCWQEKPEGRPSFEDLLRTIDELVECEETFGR
# Protocol: as §1, §2
# BTK [2] = biological target: T3, BTK; assay: Comparison of biotinylated probes, streptavidin coated plate BTK occupancy assay; format: binding; design: Positive Control lysates from BTK expressing cell line (DOHH2); endogenous in cells; host or cells: DOHH2 cell lysate; conditions: DOHH2 lysate, high and low probe concentrations
# Protocol: Selected biotinylated probes were tested for use in target occupancy assays using either the anti-protein antibody coated plate or streptavidin coated plate assay formats. The following probes were tested:
# Stock solutions (5 mM and 10 mM) of the probes were prepared as follows. […] For the assays 50× probe was prepared fresh the day of the assay: 1 μl of 5 mM probe to […] PBS.
# 1) Dilute lysate to desired concentration with PBS to final volume of 500 μl
# 2) Add Biotinylated probe (final concentration 2.5 μM) to lysate, 37 C for 1 hr
# 3) Block streptavidin plate w/ 1% BSA, RT, 1 hr, wash w/ PBST 3×
# 4) Stop reaction by transfer samples onto ice for 10 min, then bring back to RT
# 5) Add 100 ul treated lysate (in triplicate) to streptavidin plate, RT, 2 hr w/ rocking
# 6) Wash with 200 μl PBST, 5×
# 7) Add 100 μl 2nd Ab-HRP, incubate at RT for 1 hr
# 8) Wash with 200 μl PBST, 3×
# 9) Add 100 μl TMB, incubate at RT for 10 min
# 10) Add 50 μl stop solution
smiles,measurement,setting,value
CN(C/C=C/C(=O)N1CCC[C@@H](n2nc(-c3ccc(Oc4ccccc4)cc3)c3c(N)ncnc32)C1)CCCCNC(=O)CCCC(=O)NCCCOCCOCCOCCCNC(=O)CCCC[C@@H]1SC[C@@H]2NC(=O)N[C@@H]21 [Compound I-5],IC50,BLK,4.27 nM and 3.66 nM
same,IC50,BMX,5.57 nM and 4.42 nM
same,IC50,BTK [1],1.02 nM and 0.755 nM
same,IC50,ITK,198 nM and 187 nM
same,IC50,JAK3,4870 nM and 5340 nM
same,IC50,LCK,6.92 nM and 5.99 nM
same,IC50,SRC,36.3 nM and 33.8 nM
same,IC50,TEC,2.29 nM and 1.71 nM
same,signal for binding to BTK out of the probes tested,BTK [2],highest signal
